Some test systems named below: MCF7 breast; NCI-H460 lung; SK-MEL-2 melanoma; DU-145 prostate; SNB-75 CNS; EKVX NSCLC; OVCAR-5 ovarian; NCI-H226 lung; HS 578T breast; MOLT-4 leukemia.
Holding throughout (experiment): NCI tumour cell line growth inhibition, 48 h

SMILES strings stand for the structures.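 Five compound concentrations were applied to cells in 96-well plates for 48 hours; endpoints were derived by simple linear interpolation of the resulting dose-response curve. Here, GI50 denotes the concentration required for 50% inhibition of growth. Definition used: TGI = concentration required for complete inhibition of growth.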 A value given as a limit tells only on which side of the number the result lay.

For the compound `COc1ccc2c(c1)OCC1c3cc(OC)ccc3OC21` (stereo not given), the GI50 is 38.7 µM in the test with MCF7 breast; 32.1 µM in the test on NCI-H460 lung; 94.3 µM with SK-MEL-2 melanoma; above 100 µM with DU-145 prostate; 47.3 µM in the test with SNB-75 CNS; 32.6 µM with EKVX NSCLC. The GI50 was 80.1 µM in the test with OVCAR-5 ovarian, 27.3 µM in the test on NCI-H226 lung, above 100 µM in the test on HS 578T breast and 8.94 µM with MOLT-4 leukemia. Besides, the TGI in the test on MCF7 breast, with NCI-H460 lung, in the test on SK-MEL-2 melanoma, with DU-145 prostate, with SNB-75 CNS and in the test with EKVX NSCLC was above 100 µM throughout. Also, the TGI in the test with OVCAR-5 ovarian is above 100 µM; with NCI-H226 lung, above 100 µM; with HS 578T breast, above 100 µM; with MOLT-4 leukemia, 61.1 µM.

In the case of `CC(C)OC(=O)OCOP(=O)(OCOC(=O)OC(C)C)C1CCCN(O)C1=O` (stereo not given), the GI50 with MCF7 breast was 1.52 µM; in the test with NCI-H460 lung, 1.14 µM; with SK-MEL-2 melanoma, 3.1 µM; with DU-145 prostate, 3.83 µM; in the test with SNB-75 CNS, 5.46 µM; in the test on EKVX NSCLC it was 3.03 µM. Moreover, the GI50 is 5.25 µM in the test on OVCAR-5 ovarian, 1.36 µM in the test on NCI-H226 lung, 0.586 µM with HS 578T breast and 1.34 µM with MOLT-4 leukemia. Moreover, the TGI in the test on MCF7 breast was above 100 µM; in the test with NCI-H460 lung it was above 100 µM; in the test with SK-MEL-2 melanoma, 20.4 µM; in the test on DU-145 prostate, above 100 µM; in the test with SNB-75 CNS it was above 100 µM; with EKVX NSCLC, above 100 µM. In addition, the TGI was above 100 µM in the test on OVCAR-5 ovarian, above 100 µM in the test with NCI-H226 lung, 6.56 µM in the test on HS 578T breast and above 100 µM in the test on MOLT-4 leukemia.

Regarding `C=C(C)[C@@H]1CC[C@]2(C(=O)OC)CC[C@]3(C)[C@H](CC[C@@H]4[C@@]5(C)CC/C(=N\OCCC(=NCCC#N)NOCCC#N)C(C)(C)[C@@H]5CC[C@]43C)[C@@H]12`, the GI50 with MCF7 breast was 3.68 µM; in the test with NCI-H460 lung it was 11.1 µM; in the test with SK-MEL-2 melanoma it was 13.8 µM; in the test with DU-145 prostate, 13.4 µM; in the test on SNB-75 CNS it was 31.2 µM; in the test with EKVX NSCLC, 4.77 µM. Besides, the GI50 in the test with OVCAR-5 ovarian was 16.7 µM; with NCI-H226 lung it was 5.43 µM; with HS 578T breast, 30.2 µM; in the test on MOLT-4 leukemia, 2.52 µM. The TGI with MCF7 breast, in the test on NCI-H460 lung, in the test on SK-MEL-2 melanoma, in the test with DU-145 prostate, in the test on SNB-75 CNS and with EKVX NSCLC was above 50 µM each time. Also, the TGI was above 50 µM in the test with OVCAR-5 ovarian, 15.5 µM in the test with NCI-H226 lung, above 50 µM in the test with HS 578T breast and 13 µM with MOLT-4 leukemia.

On to `CC1(C)N=C(N)N=C(N)N1c1cccc(CC(=O)Nc2ccccc2)c1`, for which the GI50 was 7.56 µM in the test with MCF7 breast; 3.63 µM in the test with NCI-H460 lung; above 100 µM in the test with SK-MEL-2 melanoma; 12.7 µM with DU-145 prostate; 15.4 µM with SNB-75 CNS; above 100 µM in the test with EKVX NSCLC. In addition, the GI50 with OVCAR-5 ovarian is above 100 µM; with NCI-H226 lung, above 100 µM; in the test with HS 578T breast it was 11.5 µM; with MOLT-4 leukemia, 25.2 µM. In addition, the TGI in the test with MCF7 breast, in the test with NCI-H460 lung, in the test with SK-MEL-2 melanoma, in the test with DU-145 prostate, in the test on SNB-75 CNS and in the test with EKVX NSCLC was above 100 µM each time. In addition, the TGI is above 100 µM in the test on OVCAR-5 ovarian, above 100 µM in the test with NCI-H226 lung, 73.2 µM in the test on HS 578T breast and above 100 µM in the test with MOLT-4 leukemia.

For `COc1cc2nc(NC3CCC3)nc(NC3CCN(C(C)C)CC3)c2cc1OC`, the GI50 with MCF7 breast was 2.96 µM; in the test with NCI-H460 lung, 3.36 µM; in the test on SK-MEL-2 melanoma, 1.9 µM; with DU-145 prostate, 4.04 µM; with SNB-75 CNS, 1.41 µM; with EKVX NSCLC, 4.65 µM. Moreover, the GI50 in the test with OVCAR-5 ovarian is 4.01 µM; with NCI-H226 lung, 6 µM; in the test with HS 578T breast it was 2.08 µM; in the test on MOLT-4 leukemia, 2.83 µM. The TGI in the test with MCF7 breast was 13 µM; in the test on NCI-H460 lung, 12.1 µM; with SK-MEL-2 melanoma, 3.79 µM; in the test on DU-145 prostate it was 14.9 µM; in the test with SNB-75 CNS, 4.4 µM; with EKVX NSCLC it was 23.4 µM. Also, the TGI was found to be 19.1 µM in the test with OVCAR-5 ovarian, 21.8 µM in the test on NCI-H226 lung, 5.45 µM in the test with HS 578T breast and 8.48 µM in the test on MOLT-4 leukemia.

In the case of `CC/C(=C\c1ccc(N(C)C)cc1)c1ccncc1`, the GI50 in the test with MCF7 breast is 9.31 µM; in the test with NCI-H460 lung, 3.79 µM; with SK-MEL-2 melanoma, 8.51 µM; in the test with DU-145 prostate, 9.47 µM; in the test with SNB-75 CNS, 6.88 µM; with EKVX NSCLC, 3.29 µM. Besides, the GI50 was 33 µM in the test with OVCAR-5 ovarian, 14.1 µM with NCI-H226 lung, 4.13 µM in the test with HS 578T breast and 5.09 µM in the test with MOLT-4 leukemia. For the same compound, the TGI with MCF7 breast was above 100 µM; in the test on NCI-H460 lung, above 100 µM; with SK-MEL-2 melanoma, above 100 µM; in the test with DU-145 prostate it was above 100 µM; in the test with SNB-75 CNS, 47.7 µM; with EKVX NSCLC it was above 100 µM. Besides, the TGI is above 100 µM with OVCAR-5 ovarian, above 100 µM in the test on NCI-H226 lung, 67.2 µM in the test on HS 578T breast and above 100 µM in the test with MOLT-4 leukemia.

Regarding `COc1cnc2c(c1)C(=O)c1c-2n(CCCN2CCNCC2)c(=O)c2cc(F)ccc12`, the GI50 in the test on MCF7 breast was 0.0345 µM; with NCI-H460 lung, 0.0252 µM; in the test on SK-MEL-2 melanoma, 1.71 µM; with DU-145 prostate, 0.0623 µM; with SNB-75 CNS, 0.368 µM; in the test on EKVX NSCLC it was 0.441 µM. The GI50 was 0.334 µM in the test with OVCAR-5 ovarian, 0.15 µM in the test with NCI-H226 lung, 2.08 µM with HS 578T breast and 0.0275 µM with MOLT-4 leukemia. Also, the TGI is 1.41 µM in the test on MCF7 breast; 0.275 µM in the test with NCI-H460 lung; 3.37 µM with SK-MEL-2 melanoma; 1.15 µM in the test with DU-145 prostate; 2.87 µM with SNB-75 CNS; 2.08 µM with EKVX NSCLC. The TGI with OVCAR-5 ovarian came to 1.51 µM; with NCI-H226 lung it was 0.507 µM; with HS 578T breast, 16.9 µM; in the test on MOLT-4 leukemia, 0.164 µM.

These data come from PubChem BioAssay (NCI).
